# Reference: patent US4330558A, “Pharmaceutical composition and method for treating peripheral orthostatic hypotension” (Sumitomo Chemical Company, Limited, priority 1980, dated 1982)
# Read-outs that look alike come from different tables or passages of the source.
# Experiments:
# patients with FAP [1] = experiment: Intravenous drip infusion test of DL-threo-DOPS in normal persons and FAP patients (pulse rate, blood pressure); type: in vivo, human; conditions: 200 mg i.v. drip infusion over 2 hours
# Description: (1) Intravenous drip infusion test of DL-threo-DOPS The test was carried out by administering 200 mg of DL-threo-DOPS in 400 ml of isotonic sodium chloride solution over 2 hours to four persons (2 normal persons and 2 FAP patients) by intravenous drip infusion (1.7 mg/min.). Changes in pulse rate and blood pressure were determined. In the graphs A to D of FIG. 1, the abscissa axes indicate time (min.) and the ordinate axes indicate changes in pulse rate, maximum blood pressure (mmHg) and minimum blood pressure (mmHg), and drip infusion rate of DL-threo-DOPS (mg/min.), respectively. In the graphs A to C, the symbol o indicates normal subjects (2 persons) and .cndot., FAP patients (2 persons).
# patients with FAP [2] = type: in vivo, human; conditions: 600 mg oral
# Description: (2) Oral administration test of DL-threo-DOPS
# The test was carried out by administering orally 600 mg of DL-threo-DOPS to nine persons (4-normal persons and 5 FAP patients). Plasma norepinephrine levels and blood pressure were determined.
# In the graphs A to C of FIG. 2, the abscissa axes indicate time (hrs.) and the ordinate axes indicate plasma norepinephrine level (pg/ml), change in maximum blood pressure (mmHg) and minimum blood pressure (mmHg), respectively. The results are expressed as mean±S.E.
# FAP patients = experiment: Long term oral administration of DL-threo-DOPS in FAP patients (simple blind test, 4 weeks); type: in vivo, human; conditions: 1.2 g/day oral
# Description: (3) Long term oral administration of DL-threo-DOPS The clinical trial was carried out according to a simple blind test procedure. […] The patients refrained from taking any drug for one week before administration of DL-threo-DOPS. After 4 weeks of administration period of DL-threo-DOPS,the patients were given placebos containing lactose. […] In the graphs A to F of FIG. […] The results are expressed as mean±S.E.
# [3] = test system: patients suffering from various kinds of orthostatic hypotension; experiment: Effect of intravenous DL-threo-DOPS on blood pressure in patients suffering from various kinds of orthostatic hypotension; type: in vivo, human; conditions: i.v. drip infusion
# Description: Under the same condition as in FAP, DL-threo-DOPS was administered intravenously to patients suffering from familial diabetes mellitus, aortitis syndrome, idiopathic orthostatic hypotension, acute pan-dysautonomia and ectopic pineal tumor, respectively. Changes in pulse rate and blood pressure were determined. In the graphs A to D of FIGS. 4, 5, 6, 7 and 8, the abscissa axes indicate time (min.) and the ordinate axes indicate change in pulse rate, maximum blood pressure (mmHg) and minimum blood pressure (mmHg), and drip infusion rate of DL-threo-DOPS (mg/min.), respectively.
# [4] = Acute toxicity, LD50 in mice; type: in vivo; conditions: mouse, in vivo
# Excerpt: (§1) Toxicity of threo-DOPS is extremely low. LD50 value in mice is more than 10 g/kg (p.o.) and about 10 g/kg (i.p.).
# mice = experiment: Acute toxicity, LD50 in mice; type: in vivo
# Excerpt: as §1
# orthostatic hypotension = experiment: Clinical effect of threo-DOPS on blood pressure, summary of the pharmacological tests; type: in vivo, human
# [5] = Clinical observation of side effects; type: in vivo, human
# [6] = in a certain case; cited from earlier work
# [7] = Comparison of effectiveness of L-isomer and DL-isomer in the pharmacological tests; type: in vivo; conditions: L-isomer vs DL-isomer
# Excerpt: In general, threo-DOPS exists as optical isomers and there are the L- and D-isomers as well as the racemic DL-isomer. The term "threo-DOPS" used herein means DL-threo-DOPS and L-threo-DOPS.
# [8] = test system: aromatic L-amino acid decarboxylase; conditions: in the living body; cited from earlier work
# [9] = summary of the pharmacological tests
compound,measurement,setting,value
"N[C@H](C(=O)O)[C@H](O)c1ccc(O)c(O)c1 (relative stereo) [DL-threo-DOPS, DL-threo-3,4-dihydroxyphenylserine]",blood pressure response,patients with FAP [1]; FAP patients (2),a sensitive hypertensive response was observed
same,time course of the response,patients with FAP [1]; FAP patients (2),gradual and sustained
same,change in blood pressure,patients with FAP [1]; normal persons (2),did not change either pulse rate or blood pressure
same,change in pulse rate,patients with FAP [1]; normal persons (2),did not change either pulse rate or blood pressure
same,change in plasma norepinephrine level,patients with FAP [2]; FAP patients (FIG. 2),almost parallel with that of blood pressure
same,time at which plasma norepinephrine level was restored to the normal level after oral administration,patients with FAP [2]; FAP patients (FIG. 2),5 h
same,absorption after oral administration,patients with FAP [2]; inferred from the results,absorbed in the intestine
same,conversion by aromatic L-amino acid decarboxylase after oral administration,patients with FAP [2]; inferred from the results,converted to (-) norepinephrine
same,hypertensive action,patients with FAP [2]; FAP patients (5),gradual and sustained hypertensive action
same,time of peak of hypertensive action after oral administration,patients with FAP [2]; FAP patients (5),5 h
same,change in blood pressure,patients with FAP [2]; normal subjects (4),no significant change in blood pressure was observed
same,activity of daily living,FAP patients,restored
same,dizziness and giddiness caused by orthostatic hypotension,FAP patients,mitigated
same,side effect,FAP patients,No side effect was observed
same,blood pressure at 11 a.m. and 1 p.m.,"FAP patients; three patients suffering from orthostatic hypotension, 3 and 5 hours after administration",a significant rise of blood pressure was observed
same,pressor response,"[3]; acute pan-dysautonomia, person",Pressor response was observed
same,pressor response,"[3]; aortitis syndrome, person",Pressor response was observed
same,selectivity for type of orthostatic hypotension,[3]; conclusion from cases (1) to (5),"selective effect on the ""peripheral"" type of orthostatic hypotension"
same,pressor response,"[3]; ectopic pineal tumor, person",Pressor response was not observed
same,pressor response,"[3]; familial diabetes mellitus, patient A (asymptomatic orthostatic hypotension)",showed pressor response
same,pressor response,"[3]; idiopathic orthostatic hypotension, person",Pressor response was observed
"N[C@H](C(=O)O)[C@H](O)c1ccc(O)c(O)c1 (relative stereo) [threo-DOPS, threo-3,4-dihydroxyphenylserine]",LD50,[4]; ip,~10000 mg/kg
same,LD50,[4]; po,> 10000 mg/kg
same,toxicity,mice,extremely low
same,effect on orthostatic hypotension,orthostatic hypotension; FAP as model of dysautonomia syndrome,"effective on orthostatic hypotension, inducing substantial and sustained elevation of blood pressure"
same,effect on blood pressure of normal subjects and of patients suffering from central orthostatic hypotension,orthostatic hypotension; [9],does not have a significant effect on blood pressure
same,effect on peripheral orthostatic hypotension,orthostatic hypotension; [9],"selective effect on ""peripheral"" orthostatic hypotension"
same,side effect observed clinically,[5],no side effect is observed clinically
NC(C(=O)O)C(O)c1ccc(O)c(O)c1 (centres unmarked) [DOPS],effect on blood pressure,[6],anti-hypertensive action
"N[C@H](C(=O)O)[C@H](O)c1ccc(O)c(O)c1 [L-threo-DOPS, L-threo-3,4-dihydroxyphenylserine]",amount for the same effect relative to the DL-isomer,[7],same effect as the DL-isomer in one half the amount
same,effectiveness relative to the DL-isomer,[7],about twice as effective as the DL-isomer
same,conversion by aromatic L-amino acid decarboxylase,[8],converted to (-) norepinephrine
